Experimental findings from patent US20100273804A1, “PYRIDAZINE DERIVATIVES USEFUL AS FUNGICIDES AND FOR THE TREATMENT OF CANCER” (SYNGENTA CROP PROTECTION, INC., priority 2007, published 2010) are described below.

Molecules are shown by their SMILES. Bounds are passed on as bounds.

One data set has as its system Uncinula necator. In words: Uncinula necator/grape/preventive (action against powdery mildew on grape). Format: in vivo. To be noted: Erysiphe necator, 168 h, grape seedlings cv. Gutedel, preventive spray, assessed 7 days after inoculation, read-out: inhibit fungal infestation. As to the method:
Uncinula necator/Grape/Preventive (Action Against Powdery Mildew on Grape) 5 weeks old grape seedlings cv. Gutedel are treated with the formulated test compound in a spray chamber. One day after application grape plants are inoculated by shaking plants infected with grape powdery mildew above the test plants. After an incubation period of 7 days at 24° C./22° C. and 70% r.h. under a light regime of 14/10 h (light/dark) the disease incidence is assessed.

Data set [1] relates to Maqnaporthe qrisea (Pyricularia oryzae). In words: whole plant or invertebrate. It is filed as in vivo. The conditions noted are these: 144 h, read-out: inhibit fungal infestation.
In another data set the test system is Septoria tritici. In words: Septoria tritici/wheat/preventive (action against Septoria leaf spot on wheat). To be noted: Zymoseptoria tritici, wheat plants cv. Riband, preventive spray, assessed 16-18 days after inoculation, read-out: inhibits fungal infestation. Format: in vivo. As to the method: Septoria tritici/Wheat/Preventive (Action Against Septoria Leaf Spot on Wheat) 2 weeks old wheat plants cv. Riband are treated with the formulated test compound in a spray chamber. One day after application wheat plants are inoculated by spraying a spore suspension (10^6 conidia/ml) on the test plants. After an incubation period of 1 day at 22° C./21° C. and 95% r.h. plants are kept at 22° C./21° C. and 70% r.h. in a greenhouse. The disease incidence is assessed 16-18 days after inoculation.

The next data set concerns Alternaria solani. In words: Alternaria solani/tomato/preventive (action against Alternaria on tomato). The conditions noted are these: 96 h, tomato plants cv. Roter Gnom, preventive spray, assessed 4 days after inoculation, read-out: inhibit fungal infestation. Format: in vivo. How it is done: Alternaria solani/Tomato/Preventive (Action Against Alternaria on Tomato) 4 weeks old tomato plants cv. Roter Gnom are treated with the formulated test compound in a spray chamber. Two days after application tomato plants are inoculated by spraying a spore suspension on the test plants. After an incubation period of 4 days at 22° C./18° C. and 95% r.h. in a greenhouse the disease incidence is assessed.

In data set [2] the test system is Pyrenophora teres (Helminthosporium teres). In words: Pyrenophora teres (Helminthosporium teres)/barley/preventive (action against net blotch on barley). Format: in vivo. To be noted: 96 h, barley plants cv. Regina, preventive spray, assessed 4 days after inoculation, read-out: inhibit fungal infestation. As to the method:
Pyrenophora teres (Helminthosporium teres)/Barley/Preventive (Action Against Net Blotch on Barley) 1-week-old barley plants cv. Regina are treated with the formulated test compound in a spray chamber. Two days after application barley plants are inoculated by spraying a spore suspension (2.6×10^4 conidia/ml) on the test plants. After an incubation period of 4 days at 20° C. and 95% r.h. the disease incidence is assessed.

The subject of a further data set is Puccinia recondita. Put plainly: Puccinia recondita/wheat/preventive (action against brown rust on wheat). Format: in vivo. The conditions noted are these: 264 h, wheat plants cv. Arina, preventive spray, assessed 11 days after inoculation, read-out: inhibit fungal infestation. As to the method:
Puccinia recondita/Wheat/Preventive (Action Against Brown Rust on Wheat) 1 week old wheat plants cv. Arina are treated with the formulated test compound in a spray chamber. One day after application wheat plants are inoculated by spraying a spore suspension ([…] uredospores/ml) on the test plants. After an incubation period of 1 day at 20° C. and 95% r.h. plants are kept for 10 days 20° C./18° C. (day/night) and 60% r.h. in a greenhouse. The disease incidence is assessed 11 days after inoculation.

A further data set concerns Botrytis cinerea. Put plainly: Botrytis cinerea/tomato/preventive (action against Botrytis on tomato). It is filed as in vivo. To be noted: 72 h, tomato plants cv. Roter Gnom, preventive spray, assessed 3 days after inoculation, read-out: inhibit fungal infestation. As to the method:
Botrytis cinerea/tomato/preventive (Action against Botrytis on tomato) 4 weeks old tomato plants cv. Roter Gnom are treated with the formulated test compound in a spray chamber. Two days after application tomato plants are inoculated by spraying a spore suspension on the test plants. After an incubation period of 3 days at 20° C. and 95% r. h. in a greenhouse the disease incidence is assessed.

As to `Cc1nnc(Cl)c(-c2c(F)cc(F)cc2F)c1Cc1ccc(Cl)cc1` [I.k.158, 3-chloro-5-(4-chloro-benzyl)-6-methyl-4-(2,4,6-trifluoro-phenyl)-pyridazine], the inhibition at 200 ppm (in the data set with Uncinula necator; in data set [1]; in the data set with Septoria tritici; with Alternaria solani; in data set [2]; with Puccinia recondita) was ≥ 80% each time. Besides, the inhibition at 200 ppm in the data set with Botrytis cinerea is ≥ 80%.

In the case of `Cc1n[nH]c(=O)c(-c2c(F)cc(F)cc2F)c1Cc1ccc(Cl)cc1` [I.k.157, 5-(4-chloro-benzyl)-6-methyl-4-(2,4,6-trifluoro-phenyl)-2H-pyridazin-3-one], the melting point was in the range of 212 to 215 °C.

Usually melting point stands for the temperature of the solid-liquid transition.
